Assay results: publication PMC11882969 (Nature Communications, 2025)
Values joined by “and” are separate entries in the source; they are usually repeats but may differ in a detail not shown here. Equal entries are not always repeated. Marks after values point to notes of the source that are not given here.

Experiments:
hCB1 [1] = target: T1, hCB1 (Homo sapiens, UniProt P21554); assay: Lance Ultra cAMP accumulation assay, CHO cells; format: cell-based; set-up: expressed in transfected cells;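 further: human CB1R stably expressed in CHO cells, ligands co-incubated with forskolin at room temperature, read-out is lowering of forskolin-stimulated cAMP accumulation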
hCB1 [2] = target: T1, hCB1; assay: bioSensAll ebBRET signaling profiling, hCB1; format: cell-based; set-up: host or cells: HEK293SL cells, transient PEI transfection

T1 sequence (P21554 whole entry): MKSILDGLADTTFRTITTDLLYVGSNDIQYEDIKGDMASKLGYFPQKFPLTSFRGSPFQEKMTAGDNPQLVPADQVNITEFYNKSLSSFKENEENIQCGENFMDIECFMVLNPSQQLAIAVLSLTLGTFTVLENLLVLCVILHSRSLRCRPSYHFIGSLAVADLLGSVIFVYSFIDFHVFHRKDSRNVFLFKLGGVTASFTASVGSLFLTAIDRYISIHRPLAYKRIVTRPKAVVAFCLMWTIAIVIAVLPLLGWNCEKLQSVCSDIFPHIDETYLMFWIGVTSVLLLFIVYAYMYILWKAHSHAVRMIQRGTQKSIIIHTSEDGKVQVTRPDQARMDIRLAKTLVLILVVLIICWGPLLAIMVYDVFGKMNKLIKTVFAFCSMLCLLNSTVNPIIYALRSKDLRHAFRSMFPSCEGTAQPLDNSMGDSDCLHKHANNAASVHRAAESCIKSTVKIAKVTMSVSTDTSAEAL

## COC(=O)C(C)(NC(=O)c1cc(C)n(-c2cccc(C(F)(F)F)c2)n1)c1cccs1 (stereo not drawn) [‘4042]
hCB1 [1]
  EC50: 3.3 nM
  Lance Ultra cAMP pEC50: 8.5 [8.3 – 8.7]
hCB1 [1]; CHO
  Emax: 78%
hCB1 [2]; Log [Compound] (M) -4.22186
  Barr2+GRK2 hCB1: 92.62* and 120.7*
  G13 hCB1: 70.6599
  G15 hCB1: 109.73 and 102.131
  Gi1 hCB1: 104.966 and 104.552 and 101.354
  Gi2 hCB1: 114.417 and 105.522
  GoB hCB1: 107.662 and 102.746 and 100.082
  Gq hCB1: 1205
  Gs hCB1: 6574
hCB1 [2]; Log [Compound] (M) -4.63927
  Barr2+GRK2 hCB1: 82.3587 and 72.7006
  G13 hCB1: 46.7858 and 87.1754
  G15 hCB1: 108.775 and 92.8459
  Gi1 hCB1: 101.502 and 110.826 and 98.3137
  Gi2 hCB1: 122.075 and 85.154
  GoB hCB1: 110.056 and 106.901 and 98.7991
  Gq hCB1: 1175
  Gs hCB1: 6296
  Gz hCB1: 112.813 and 91.1447
hCB1 [2]; Log [Compound] (M) -5.05788
  Barr2+GRK2 hCB1: 70.2312 and 47.6394
  G15 hCB1: 113.05 and 88.4535
  Gi1 hCB1: 105.528 and 109.408 and 94.1617
  Gi2 hCB1: 116.649 and 83.6719
  GoB hCB1: 115.498 and 117.852 and 92.0047
  Gq hCB1: 1109
  Gs hCB1: 6591
  Gz hCB1: 89.4695 and 99.3467
hCB1 [2]; Log [Compound] (M) -5.47381
  G13 hCB1: 42.3393 and 80.0269
  G15 hCB1: 106.626 and 91.4256
  Gi1 hCB1: 102.594 and 101.052 and 96.5342
  Gi2 hCB1: 113.717 and 80.6941
  GoB hCB1: 111.936 and 119.903 and 88.1947
  Gq hCB1: 1096
  Gs hCB1: 6432
  Gz hCB1: 99.3173 and 98.4249
hCB1 [2]; Log [Compound] (M) -5.89285
  Barr2+GRK2 hCB1: 78.4199 and 57.3671
  G15 hCB1: 110.351 and 94.8449
  Gi1 hCB1: 96.0236 and 103.056 and 95.3776
  Gi2 hCB1: 120.967 and 77.6348
  GoB hCB1: 107.616 and 111.235 and 93.9859
  Gq hCB1: 1179
  Gs hCB1: 6305
  Gz hCB1: 104.129 and 105.45 and 96.7384
hCB1 [2]; Log [Compound] (M) -6.31878
  Barr2+GRK2 hCB1: 80.7003 and 54.8939
  G15 hCB1: 115.7 and 96.7912
  Gi1 hCB1: 96.367 and 108.992 and 101.754
  Gi2 hCB1: 121.929 and 79.8783
  GoB hCB1: 95.5518 and 109.274 and 88.1947
  Gq hCB1: 1143
  Gs hCB1: 6312
  Gz hCB1: 91.7649 and 96.1616 and 90.8724
hCB1 [2]; Log [Compound] (M) -6.72585
  Barr2+GRK2 hCB1: 68.6764 and 46.9799
  G15 hCB1: 112.142 and 94.2925
  Gi1 hCB1: 106.09 and 92.9585 and 96.5936
  Gi2 hCB1: 109.48 and 81.9179
  GoB hCB1: 86.2761 and 114.112 and 87.3057
  Gq hCB1: 1077
  Gs hCB1: 6405
  Gz hCB1: 96.9343 and 94.4158 and 89.6782
hCB1 [2]; Log [Compound] (M) -7.14267
  Barr2+GRK2 hCB1: 59.7621 and 50.2774
  G15 hCB1: 114.268 and 99.1321
  Gi1 hCB1: 107.604 and 101.422 and 97.765
  Gi2 hCB1: 109.219 and 83.8759
  GoB hCB1: 86.7157 and 119.974 and 89.2869
  Gq hCB1: 1043
  Gs hCB1: 7002
  Gz hCB1: 98.2797 and 100.101 and 88.7145
hCB1 [2]; Log [Compound] (M) -7.55284
  Barr2+GRK2 hCB1: 52.5063 and 42.0336
  G15 hCB1: 113.933 and 98.6587
  Gi1 hCB1: 97.1473 and 109.377 and 98.1802
  Gi2 hCB1: 110.556 and 82.2578
  GoB hCB1: 88.4435 and 120.01 and 87.3057
  Gq hCB1: 1071
  Gs hCB1: 6586
  Gz hCB1: 92.0765 and 86.4032 and 85.0169
hCB1 [2]; Log [Compound] (M) -8
  Barr2+GRK2 hCB1: 45.4579 and 41.3741
  G15 hCB1: 112.381 and 101.184
  Gi1 hCB1: 95.7115 and 104.367 and 92.5898
  Gi2 hCB1: 103.223 and 88.1181
  GoB hCB1: 98.6892 and 112.511 and 89.2869
  Gq hCB1: 1060
  Gs hCB1: 6741
  Gz hCB1: 97.3733 and 99.8321 and 82.6809
hCB1 [2]; Log [Compound] (M) -8.22186
  Barr2+GRK2 hCB1: 47.6346 and 43.8472
  G13 hCB1: 44.4318 and 47.6121
  G15 hCB1: 112.142 and 106.076
  Gi1 hCB1: 104.327 and 106.186 and 100.167
  Gi2 hCB1: 112.022 and 97.4049
  GoB hCB1: 115.24 and 97.3514 and 98.8499
  Gq hCB1: 1073
  Gs hCB1: 6493
  Gz hCB1: 122.54 and 109.635 and 78.9413
hCB1 [2]; Log [Compound] (M) -8.39794
  Barr2+GRK2 hCB1: 32.0865 and 32.6356
  G15 hCB1: 101.826 and 96.5808
  Gi1 hCB1: 93.4953 and 99.8959 and 97.0977
  Gi2 hCB1: 102.295 and 80.9389
  GoB hCB1: 81.1381 and 111.288 and 86.2389
  Gq hCB1: 1055
